The values below come from ChEMBL document CHEMBL1201862, “PubChem BioAssay data set” (2004).

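Each compound was tested at five concentrations against cells in 96-well plates for 48 hours. The concentration for 50% growth inhibition is given as GI50.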 Calls of active or inactive are those of the source. Rule as the data show it: active = GI50 up to about 1.1 µM and inactive = higher.

Test systems include MOLT-4; MCF7; HL-60; HCT-116; T47D; SW-620; 786-0; UO-31; SF-268; NCI/ADR-RES; SK-MEL-5; NCI-H460; COLO 205; CAKI-1; U-251; UACC-62; KM12; ACHN; Malme-3M; SR.
What all share (assay): NCI anticancer screen, dose series, 48 h

For `Cc1ccc(S(=O)(=O)Oc2cc(N)c3c(n2)CCC3)cc1`, the GI50 with MOLT-4 is 33.7 µM (inactive); in the assay on MCF7, > 100 µM (inactive); with HL-60, 43.2 µM (inactive); in the assay on HCT-116, > 100 µM (inactive); in the assay on T47D, 56.4 µM (inactive); with SW-620, > 100 µM (inactive). In addition, the GI50 is > 100 µM (inactive) with 786-0; 69.3 µM (inactive) in the assay with UO-31; > 100 µM (inactive) in the assay on SF-268; 79.8 µM (inactive) with NCI/ADR-RES; 39 µM (inactive) in the assay on SK-MEL-5; > 100 µM (inactive) with NCI-H460. In addition, the GI50 in the assay on COLO 205 is 53.5 µM (inactive); with CAKI-1, > 100 µM (inactive); in the assay on U-251 it was > 100 µM (inactive); in the assay with UACC-62, 97.5 µM (inactive); in the assay with KM12, > 100 µM (inactive); in the assay on ACHN, > 100 µM (inactive).

As for `O=c1[nH]c(=O)c2ncn(-c3ccc([N+](=O)[O-])cn3)c2[nH]1`, the GI50 in the assay with MOLT-4, with MCF7, with HL-60, in the assay on HCT-116, with T47D and in the assay on SW-620 was > 100 µM (inactive) throughout. Further, the GI50 with 786-0, in the assay on UO-31, with SF-268, with NCI/ADR-RES, with SK-MEL-5 and in the assay with NCI-H460 was > 100 µM (inactive) in each case. Moreover, the GI50 with COLO 205 was > 100 µM (inactive); with CAKI-1, > 100 µM (inactive); in the assay with U-251, > 100 µM (inactive); in the assay with UACC-62, 74.1 µM (inactive); in the assay with KM12, > 100 µM (inactive); in the assay on Malme-3M, 2.79 µM (inactive). Further, the GI50 in the assay on ACHN is > 100 µM (inactive).

On to `O=C(/C=C/c1csc(-c2ccccc2)n1)NCc1ccc(C(=O)NCCc2ccccc2)cc1`, for which the GI50 in the assay on MOLT-4 was > 100 µM (inactive); in the assay with MCF7 it was 72.3 µM (inactive); with HCT-116 it was 26.9 µM (inactive); in the assay with T47D, 41.2 µM (inactive); with SR, > 100 µM (inactive); with SW-620 it was 74.5 µM (inactive). Besides, the GI50 in the assay with 786-0 was 8.63 µM (inactive); in the assay on UO-31 it was 48.1 µM (inactive); in the assay with SF-268, 5.94 µM (inactive); with NCI/ADR-RES, 11.6 µM (inactive); in the assay with SK-MEL-5, 69.5 µM (inactive); in the assay on NCI-H460, 55.3 µM (inactive). For the same compound, the GI50 with COLO 205 is 42.1 µM (inactive); in the assay with CAKI-1, 15.6 µM (inactive); with U-251, 5.16 µM (inactive); in the assay with UACC-62, 31.8 µM (inactive); in the assay with KM12, 61.1 µM (inactive); in the assay with Malme-3M, 24.3 µM (inactive). The GI50 in the assay with ACHN was 19.3 µM (inactive).

Consider `O=c1sc2c(s1)-c1sc(=O)sc1SS2`, for which the GI50 was > 61 µM (inactive) in the assay on MOLT-4; > 100 µM (inactive) in the assay on MCF7; > 100 µM (inactive) in the assay with HL-60; > 100 µM (inactive) in the assay on HCT-116; > 100 µM (inactive) in the assay with T47D; > 100 µM (inactive) with SW-620. The GI50 in the assay on 786-0 is > 100 µM (inactive); in the assay on UO-31, > 100 µM (inactive); in the assay on SF-268, > 100 µM (inactive); with NCI/ADR-RES, 26.7 µM (inactive); with SK-MEL-5 it was > 56.5 µM (inactive); with NCI-H460 it was > 100 µM (inactive). Also, the GI50 in the assay with COLO 205 is > 46 µM (inactive); in the assay on CAKI-1, > 100 µM (inactive); in the assay with U-251, > 31.6 µM (inactive); with UACC-62 it was > 100 µM (inactive); in the assay with KM12 it was > 100 µM (inactive); in the assay on Malme-3M, > 100 µM (inactive). In the assay with ACHN, the GI50 was > 100 µM (inactive).

For the compound `CCOc1nnnc2[nH]cnc12`, the GI50 with MOLT-4, with MCF7, with HL-60, with HCT-116, with T47D and in the assay on SW-620 was > 100 µM (inactive) throughout. The GI50 with 786-0, in the assay on UO-31, with SF-268, in the assay on NCI/ADR-RES, in the assay with SK-MEL-5 and in the assay on NCI-H460 was > 100 µM (inactive) throughout. The GI50 in the assay with COLO 205, in the assay on CAKI-1, in the assay with U-251, in the assay on UACC-62, with KM12 and in the assay with Malme-3M was > 100 µM (inactive) each time.

In the case of `COc1ccc2c(c1)CC[C@@H]1[C@@H]2CC[C@]2(C)C(=O)/C(=C/c3ccncc3)C[C@@H]12`, the GI50 in the assay with MOLT-4 was > 100 µM (inactive); in the assay with MCF7 it was 61.4 µM (inactive); in the assay on HCT-116, 28.2 µM (inactive); in the assay with T47D, 33.3 µM (inactive); in the assay with SR, 47.2 µM (inactive); in the assay with SW-620, 31.2 µM (inactive). In addition, the GI50 is 32.3 µM (inactive) in the assay with 786-0; 37.2 µM (inactive) with UO-31; 36.1 µM (inactive) with SF-268; 48.8 µM (inactive) in the assay with NCI/ADR-RES; 20.2 µM (inactive) in the assay on SK-MEL-5; 27.8 µM (inactive) with NCI-H460. In addition, the GI50 is 25.3 µM (inactive) with COLO 205; 46.5 µM (inactive) in the assay on CAKI-1; 54.3 µM (inactive) in the assay on U-251; 31.6 µM (inactive) with UACC-62; 27.2 µM (inactive) in the assay on KM12; 25.8 µM (inactive) in the assay on Malme-3M. In addition, the GI50 in the assay on ACHN is 42.5 µM (inactive).

On to `O=C(/C(=N\Nc1ccc([N+](=O)[O-])cc1[N+](=O)[O-])NC12CC3CC(CC(C3)C1)C2)C(Br)C(=O)c1ccccc1` (stereo not given), for which the GI50 with MOLT-4 is 3.52 µM (inactive); in the assay with MCF7 it was 3.86 µM (inactive); in the assay with HL-60 it was 2.94 µM (inactive); in the assay with HCT-116, 3.05 µM (inactive); in the assay on T47D, 2.69 µM (inactive); with SW-620 it was 0.766 µM (active). Also, the GI50 in the assay on 786-0 was 3.21 µM (inactive); in the assay with UO-31, 6.12 µM (inactive); in the assay with SF-268, 5.05 µM (inactive); in the assay on NCI/ADR-RES, 3.23 µM (inactive); with SK-MEL-5, 1.08 µM (active); in the assay with NCI-H460 it was 3.61 µM (inactive). Further, the GI50 in the assay on COLO 205 is 2.18 µM (inactive); in the assay on CAKI-1 it was 3.2 µM (inactive); with U-251, 2.85 µM (inactive); in the assay with UACC-62, 3.38 µM (inactive); with KM12 it was 2.78 µM (inactive); in the assay on Malme-3M, 3.13 µM (inactive). In addition, the GI50 in the assay with ACHN was 3.18 µM (inactive).

Regarding `COc1cc(Nc2nnc3n2S(=O)(=O)c2cc(C)c(Cl)cc2S3)cc(OC)c1`, the GI50 with MOLT-4 was 4.29 µM (inactive); with MCF7, 13.6 µM (inactive); in the assay on HL-60 it was 8.69 µM (inactive); in the assay with HCT-116 it was 14 µM (inactive); with T47D, 8.22 µM (inactive); in the assay with 786-0, 4.22 µM (inactive). The GI50 in the assay with UO-31 was 11.6 µM (inactive); in the assay with SF-268, 11.5 µM (inactive); with NCI/ADR-RES, 15.6 µM (inactive); with SK-MEL-5, 9.29 µM (inactive); in the assay on NCI-H460, 23.8 µM (inactive); in the assay with COLO 205 it was 13.2 µM (inactive). The GI50 in the assay on CAKI-1 is 8.55 µM (inactive); in the assay with U-251, 10.9 µM (inactive); in the assay on UACC-62, 18.1 µM (inactive); in the assay with KM12 it was 23.4 µM (inactive); in the assay with Malme-3M, 2.17 µM (inactive); in the assay with ACHN it was 5.21 µM (inactive).

With `COC(=O)C1C/C(=C/N(C)C)C(=S)N1` (stereo not given), the GI50 in the assay with MOLT-4, in the assay with MCF7, in the assay with HCT-116, with T47D, in the assay on SR and in the assay on SW-620 was > 100 µM (inactive) each time. Further, the GI50 is > 100 µM (inactive) with 786-0; > 100 µM (inactive) in the assay with UO-31; > 100 µM (inactive) with SF-268; > 100 µM (inactive) in the assay on NCI/ADR-RES; > 100 µM (inactive) in the assay with SK-MEL-5; 11.6 µM (inactive) in the assay on NCI-H460. Besides, the GI50 in the assay with COLO 205, with CAKI-1, in the assay on U-251, with UACC-62, in the assay with KM12 and in the assay on Malme-3M was > 100 µM (inactive) throughout. Further, the GI50 with ACHN was > 100 µM (inactive).

For `O=C(O)C(F)(OC(F)(F)C(F)(F)C(F)(F)F)C(F)(F)F` (stereo not given), the GI50 in the assay on MOLT-4, in the assay with MCF7, in the assay on HL-60, with HCT-116, with T47D and with SW-620 was > 100 µM (inactive) throughout. Moreover, the GI50 in the assay on 786-0, with UO-31, with SF-268, in the assay on NCI/ADR-RES, in the assay on SK-MEL-5 and in the assay with NCI-H460 was > 100 µM (inactive) in each case. The GI50 in the assay with COLO 205, in the assay on CAKI-1, in the assay on U-251, in the assay on UACC-62, in the assay with KM12 and in the assay with Malme-3M was > 100 µM (inactive) throughout. Besides, the GI50 with ACHN was > 100 µM (inactive).

As to `COc1cc(C2SCCCCCCCCCCSC(c3ccc(O)c(OC)c3)SCCCCCCCCCCS2)ccc1O` (stereo not given), the GI50 with MOLT-4 is 26.3 µM (inactive); with MCF7, > 100 µM (inactive); in the assay with HCT-116 it was > 100 µM (inactive); with T47D, > 100 µM (inactive); with SR, 56.1 µM (inactive); in the assay with SW-620, > 100 µM (inactive). For the same compound, the GI50 in the assay on 786-0 was > 100 µM (inactive); in the assay with UO-31, > 100 µM (inactive); in the assay with SF-268, 52.1 µM (inactive); in the assay on NCI/ADR-RES, > 100 µM (inactive); in the assay with SK-MEL-5, > 100 µM (inactive); in the assay with COLO 205 it was > 100 µM (inactive). The GI50 in the assay with CAKI-1 is > 100 µM (inactive); in the assay on U-251, > 100 µM (inactive); in the assay on UACC-62, > 100 µM (inactive); with KM12 it was > 100 µM (inactive); with Malme-3M it was 58.1 µM (inactive); in the assay on ACHN, > 100 µM (inactive).
